Laboratory results as given in patent US20090061022A1, “Pharmaceutical composition comprising arsenite for the treatment of malignancy” (priority 2004, published 2009).

Experiments:
K562 = experiment: Cytotoxic activity, propidium iodide fluorescence assay, panel of 9 human cancer cell lines; type: cell-based; details: K562 leukemia, 3-7 days
Protocol: (§1) Three kinds of stock solutions were prepared for in vitro cytotoxic activity test. The first solution is DMSO (dimethyl sulfoxide) mixed with sodium meta-arsenite. […] The third solution is DMSO mixed with arsenic acid sodium salt. Those three solutions were diluted with culture medium (RPMI 1640). The final concentrations of DMSO in those three solutions are less than 0.3 vol %.
(§2) Nine kinds of human cancer cell lines out of six kinds of cancers were grown at 37° C. under a controlled atmosphere of 95% air and 5% CO2. The cells were grown on monolayer cultures of RPMI 1640 cell culture medium supplemented with 10% fetal calf serum.
(§3) The grown cells were harvested from exponential phase cultures by trypsinization and counted. The counted cells were placed in a plate, which has ninety six wells. Each well on the plate is in a shape of a flat-bottomed microtitre. Density of the cells in a suspension was adjusted depending on the cell line. The suspension was prepared by diluting the grown cells with the culture medium (RPMI 1640). Concentration of the cells were varied from 5×10^4 to 1×10^5 viable cells/ml. 100 μl of the suspension was placed in each well of the plate. […] Then add 50 μl of culture medium (RPMI 1640) only to 6 wells, 50 μl/well, among the 96 wells of one plate. It is called controlled. One well is filled with culture medium plus 5-FU. And another 50 μl of culture medium plus one of the stock solutions were added to each of the left 89 wells to allow cells to resume exponential growth.
(§4) The cytotoxic activity test was executed with three plates simultaneously to check reliability of the data obtained. The three plates contain the same samples of cancer cells. The three plates were then incubated for 3-7 days under the same controlled atmosphere and cell proliferation was assessed with a modified propodium iodide fluorescence assay. After thawing of the plates, fluorescence was measured using a Millipore Cytofluor 2350-microplate reader (excitation 530 nm emission 620 nm) in order to quantify the total cell number. The assay included untreated and positive controls containing 5-FU.
(§5) Growth inhibition is defined as (numbers of cancer cell alive) treated (T)/(number of cells) control (C)×100% (T/C %).

RXF 944L = experiment: as above; type: cell-based; details: RXF 944L renal cancer, 3-7 days
Protocol: as §1, §2, §3, §4, §5

U937 = experiment: as above; type: cell-based; details: U937 lymphoma, 3-7 days
Protocol: as §1, §2, §3, §4, §5

RXF 944LX = experiment: Dose finding study in human renal cancer model RXF 944LX in nude mice (i.p. days 0, 7, 14); details: for BW loss % (day) / Drug-related deaths / Rating / SGD (specific growth delay) / T/C %: days 0, 7, 14
Excerpt: In a dose finding study, the potential anticancer activity of sodium meta-arsenite and arsenic acid sodium salt versus arsenic trioxide was examined in the human renal cancer model, RXF 944LX.
Cancer fragments (1-2 mm in diameter), obtained from xenografts in serial passage in nude mice, were implanted subcutaneously (S.C.) in a flank of male NRMI nude mice (one fragment per mouse). Mice with appropriate cancer volumes (5-7 mm in diameter) were randomly distributed to treatment and control groups (4 mice/group). The start of treatment was day 0. Cancer volume and body weights were measured at least twice per week.
1) Sodium meta-arsenite (3, 10, 30 mg/kg/day), 2) Arsenic acid sodium salt (3, 10, 30 mg/kg/day) and 3) Arsenic trioxide (3, 10, 30 mg/kg/day) were administered intraperitoneally (i.p.) once daily on days 0, 7 and 14.
Stock solution of sodium meta-arsenite and arsenic acid sodium salt (3 mg/ml) were prepared in 5% (w/v) dextrose solution, respectively, to minimize acute arsenic toxicity. For arsenic trioxide, 9 mg of arsenic trioxide was dissolved in 1M NaOH (75 μl) followed by mixing with sterile aqua injectabilia (2175 μl) and sterile 20% (w/v) dextrose in water (500 μl). Further dilution to the desired concentration was done with a 5% dextrose solution to give a final concentration of 3 mg/ml.
The cancer volume of each animal was determined by two-dimensional measurement using calipers. The volume was calculated according to the formula: (a×b^2)×0.5; wherein a and b represent two perpendicular diameters in which a (length) is the larger diameter and b (width) the smaller diameter.
Relative cancer volumes (RCV) were calculated for each individual cancer by dividing the cancer volume on day X by the cancer volume on day 0 multiplied by 100%. The cancer volume of a treatment group was expressed as the median RCV of all mice of the group. Median RCV values were used for drawing growth curves and treatment evaluation. Optimal cancer growth inhibition at a particular day within the treatment period was calculated from the median RCV values of the treated (T) versus the controlled (C) group multiplied by 100%. A T/C value<50% was considered as anti-cancer activity.

[1] = Maximum tolerated dose assessment after daily oral gavages for 14 days in the mouse; type: in vivo, CD-1 mice
Protocol: The objective of this oral toxicity study was to establish a MTD after repeated administration of sodium meta-arsenite to mice.
Ampoules of sodium meta-arsenite (dissolved in 10% (w/v) glucose in water) in concentrations of 1, 1.6, 2.6, 4.1 and 6.5 mg/ml were stored in a refrigerator in the dark. Based on the previous study, the following doses were selected: 10, 16, 26, and 41 and 65 mg/kg/day. Each dose was administered daily by oral gavages to groups of 4 male and 4 CD-1 mice for 14 days, followed by a 14-day recovery period.
Clinical signs were evaluated daily and body weights were recorded twice weekly. Scheduled termination was performed on day 29 (after 14 days of recovery). Macroscopic examination was performed on all animals.

[2] = 10 mg/kg i.p., listed as sodium meta-arsenite

O=[As][O-].[Na+] [Sodium meta-arsenite, sodium meta-arsenite]
T/C % at drug concentration (K562; 1 μg/ml): 51% | T/C % at drug concentration (K562; 3 μg/ml): 15% | T/C % at drug concentration (K562; 10 μg/ml): 15% | T/C % at drug concentration (K562; 30 μg/ml): 18% | T/C % at drug concentration (K562; 100 μg/ml): 13% | T/C % at drug concentration (RXF 944L; 1 μg/ml): 124% | T/C % at drug concentration (RXF 944L; 3 μg/ml): 79% | T/C % at drug concentration (RXF 944L; 10 μg/ml): 57% | T/C % at drug concentration (RXF 944L; 30 μg/ml): 32% | T/C % at drug concentration (RXF 944L; 100 μg/ml): 9% | T/C % at drug concentration (U937; 1 μg/ml): 3% | T/C % at drug concentration (U937; 3 μg/ml): 3% | T/C % at drug concentration (U937; 10 μg/ml): 2% | T/C % at drug concentration (U937; 30 μg/ml): 2% | T/C % at drug concentration (U937; 100 μg/ml): 1% | BW loss % (day) (RXF 944LX; 3 mg/kg i.p.): +6.8 (21) % | Drug-related deaths (RXF 944LX; 3 mg/kg i.p.): 0/4 | Rating (RXF 944LX; 3 mg/kg i.p.): + (+T/C < 50) | SGD (specific growth delay) (RXF 944LX; 3 mg/kg i.p.): 0.4 | T/C % (RXF 944LX; 3 mg/kg i.p.): 19% | BW loss % (day) (RXF 944LX; 10 mg/kg i.p.): +8.7 (21) % | Drug-related deaths (RXF 944LX; 10 mg/kg i.p.): 0/4 | Rating (RXF 944LX; 10 mg/kg i.p.): − (−T/C ≧ 50%) | SGD (specific growth delay) (RXF 944LX; 10 mg/kg i.p.): −0.1 | T/C % (RXF 944LX; 10 mg/kg i.p.): 51% | BW loss % (day) (RXF 944LX; [2]): no lethality or body weight loss was observed | Drug-related deaths (RXF 944LX; [2]): no lethality or body weight loss was observed | Drug-related deaths (RXF 944LX; 30 mg/kg i.p.): 4/4 | Drug-related deaths (RXF 944LX; 30 mg/kg i.p., listed as sodium meta-arsenite): died within a few days after the first injection | Maximum Tolerated Dose (MTD) (RXF 944LX; i.p. once daily on days 0, 7 and 14, RXF 944LX bearing nude mice): 10 mg/kg/day | Findings ([1]; 10 mg/kg/day oral gavage 14 days, mouse): No findings were noted | Findings ([1]; 16 mg/kg/day oral gavage 14 days, mouse): Piloerection on the head was noted for one male on days 4 and 5 | Findings (mortality) ([1]; 26 mg/kg/day oral gavage 14 days, mouse): No unscheduled mortality occurred | Findings (mortality) ([1]; 41 mg/kg/day oral gavage 14 days, mouse): All males died on days 2-4 and all females on days 2-7 | Findings (mortality) ([1]; 65 mg/kg/day oral gavage 14 days, mouse): All animals died on days 2 or 3, all females died on day 1 or 2 | MTD (or LD10 value) ([1]; mice, males and females, oral once daily 14 days, calculated): 32 mg/kg/day | MTD ([1]; mouse, oral once daily 14 days): 96 mg/m^2/day
